# Measured values reported in PubChem BioAssay AID2060488 (Molecular Pharmacology Branch, DTP, NCI, 2025).
# Several values for one entry are separate records, joined by “and”; a condition that tells them apart may be missing. Identical values can stand only once.
# System: 966289-007-R4-J1-PDC complex spheroid viability
# Assay: Anticancer human tumor 966289-007-R4-J1-PDC patient-derived pancreatic adenocarcinoma cell line growth inhibition [GQUAD]
# Conditions: for viability, T/C: stronger effect = lower value
# Text: DNA G-quadruplex Stabilizer Agents in Combinations in Complex Spheroids
# A high-throughput screen of multi-cell type tumor spheroids was designed to identify active combinations of DNA G-quadruplex stabilizer agents and targeted small molecules. Complex spheroids include a stromal component modeled by human endothelial cells (HUVEC) and fibroblasts modeled by human mesenchymal stem cells (MSCs). The concentration ranges selected for each drug and investigational agent were based upon clinically achievable concentrations if the clinical Cmax of the agent was known.
# Compounds. The drugs and investigational agents: pidnarulex (CX-5461; NSC782164), APTO-253 (NSC789042), BRACO-19 (NSC847499), peposertib (NSC802822), ceralasertib (NSC780249), elimusertib (NSC800525), camonsertib (NSC841442), AZD-1390 (NSC803789), olaparib (NSC753686), talazoparib (NSC767125), ART-558 (NSC835418), sotorasib (NSC818433), MRTX-1133 (NSC836407), SN-38 (NSC673596), topotecan (NSC609699), etoposide (NSC141540), doxorubicin (NSC123127), gemcitabine (NSC613327), 5-fluorouracil (NSC19893), paclitaxel (NSC125973), vemurafenib (NSC761431), panobinostat (NSC761190), R-306465 (JNJ-16241199; NSC773264), adavosertib (NSC754352), TP-3654 (NSC805149), carboplatin (NSC241240), KSQ-4279 (NSC840948), and staurosporine (NSC755774) were obtained from the National Cancer Institute (NCI) Developmental Therapeutics Program Chemical Repository (34). The FDA-approved anticancer drug set is available from the NCI Developmental Therapeutics Program. […] The stock solutions were prepared in dimethyl sulfoxide (DMSO, Sigma-Aldrich, St. Louis, MO, cat. D2650) at 800-fold the tested concentration and stored at -70 degrees C prior to their use. All drugs and investigational agents were tested over a range starting from a high concentration at or near the clinical Cmax and decreasing in half-log increments. If the clinical Cmax for an agent had not been determined, the highest concentration tested was 10 microM.
# 2.3 Cell Culture. All cells were maintained in an incubator at 37 degrees C and 5% CO2 with 95% humidity. The PDC lines were cultured according to standard operating procedures established by the NCI PDMR. All PDCs were thawed and cultured in Matrigel-coated flasks prepared with a working solution of 1X Ham's F-12 nutrient mix, without supplementation (Invitrogen, cat. 11765054), 100 U/mL penicillin-streptomycin (Invitrogen, cat. 15140122), and 2.5% Matrigel (Corning Inc., cat. 354248) for the first three passages. The 857933-349-R-J2-PDC line was cultured in 6C/Colon 1B media, which includes advanced DMEM/F-12 (Thermo Fisher Scientific, cat. 12634028), 10 mM HEPES (Thermo Fisher Scientific, cat. 15630080), 1X GlutaMAX supplement (Thermo Fisher Scientific, cat. 35050061), 0.1 mg/mL primocin (InvivoGen, cat. ant-pm-2), 10% defined fetal bovine serum, heat inactivated (HyClone Laboratories Inc., cat. SH30070.03HI), 50% L-WRN conditioned media (ATCC, cat. CRL-3276), 1.25 mM N-Acetyl-L-cysteine (Sigma-Aldrich, cat. A9165), 10 mM nicotinamide (Sigma-Aldrich, cat. N0636), 1X B-27 supplement (Thermo Fisher Scientific, cat. 17504044), 1X N-2 supplement (Thermo Fisher Scientific, cat. 17502048), 10 microM Y-27632 dihydrochloride (Tocris Bioscience, cat. 1254), and 50 ng/mL human EGF recombinant protein (Thermo Fisher Scientific, cat. PHG0311). The 485176-168-R4-J1-PDC line was cultured in Panc media, which includes all 6C/Colon 1B media components plus 100 ng/mL human FGF-10 (Thermo Fisher Scientific, cat. 100-26), 500 nM SB-431542 (Selleckchem, cat. S1067), and gastrin (Tocris, cat. 3006).
# […]
# 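Further: spheroids exposed to the agents for seven days before readout.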
# 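Wherever viability, T/C is given: percent viability relative to DMSO vehicle control wells taken as 100%.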
smiles,measurement,setting,value
CCCS(=O)(=O)Nc1ccc(F)c(C(=O)c2c[nH]c3ncc(-c4ccc(Cl)cc4)cc23)c1F + Cc1[nH]c2ccc(F)cc2c1-c1nc2c3cccnc3c3ncccc3c2[nH]1,IC50,"curve of first compound, second compound 0.0316 µM",9.39 µM
same,IC50,"curve of first compound, second compound 0.1 µM",8.56 µM
same,IC50,"curve of first compound, second compound 0.316 µM",8.4 µM
same,IC50,"curve of first compound, second compound 1 µM",8.67 µM
same,IC50,"curve of first compound, second compound 3.16 µM",7.25 µM
same,IC50,"curve of first compound, second compound 10 µM",7.83 µM
same,"viability, T/C","second compound 0.0316 µM, first compound 0.0316 µM",111%
same,"viability, T/C","second compound 0.0316 µM, first compound 0.1 µM",105%
same,"viability, T/C","second compound 0.0316 µM, first compound 0.316 µM",116%
same,"viability, T/C","second compound 0.0316 µM, first compound 1 µM",113%
same,"viability, T/C","second compound 0.0316 µM, first compound 3.16 µM",113%
same,"viability, T/C","second compound 0.0316 µM, first compound 10 µM",46.3%
same,"viability, T/C","second compound 0.1 µM, first compound 0.0316 µM",101%
same,"viability, T/C","second compound 0.1 µM, first compound 0.1 µM",110%
same,"viability, T/C","second compound 0.1 µM, first compound 0.316 µM",113%
same,"viability, T/C","second compound 0.1 µM, first compound 1 µM",112%
same,"viability, T/C","second compound 0.1 µM, first compound 3.16 µM",111%
same,"viability, T/C","second compound 0.1 µM, first compound 10 µM",40.5%
same,"viability, T/C","second compound 0.316 µM, first compound 0.0316 µM",101%
same,"viability, T/C","second compound 0.316 µM, first compound 0.1 µM",108%
same,"viability, T/C","second compound 0.316 µM, first compound 0.316 µM",110%
same,"viability, T/C","second compound 0.316 µM, first compound 1 µM",114%
same,"viability, T/C","second compound 0.316 µM, first compound 3.16 µM",112%
same,"viability, T/C","second compound 0.316 µM, first compound 10 µM",39.3%
same,"viability, T/C","second compound 1 µM, first compound 0.0316 µM",97.6%
same,"viability, T/C","second compound 1 µM, first compound 0.1 µM",112%
same,"viability, T/C","second compound 1 µM, first compound 0.316 µM",115%
same,"viability, T/C","second compound 1 µM, first compound 1 µM",114%
same,"viability, T/C","second compound 1 µM, first compound 3.16 µM",116%
same,"viability, T/C","second compound 1 µM, first compound 10 µM",41.4%
same,"viability, T/C","second compound 3.16 µM, first compound 0.0316 µM",110%
same,"viability, T/C","second compound 3.16 µM, first compound 0.1 µM",114%
same,"viability, T/C","second compound 3.16 µM, first compound 0.316 µM",115%
same,"viability, T/C","second compound 3.16 µM, first compound 1 µM",110%
same,"viability, T/C","second compound 3.16 µM, first compound 3.16 µM",108%
same,"viability, T/C","second compound 3.16 µM, first compound 10 µM",27.6%
same,"viability, T/C","second compound 10 µM, first compound 0.0316 µM",104%
same,"viability, T/C","second compound 10 µM, first compound 0.1 µM",111%
same,"viability, T/C","second compound 10 µM, first compound 0.316 µM",115%
same,"viability, T/C","second compound 10 µM, first compound 1 µM",112%
same,"viability, T/C","second compound 10 µM, first compound 3.16 µM",112%
same,"viability, T/C","second compound 10 µM, first compound 10 µM",33.5%
C=CC(=O)N1CCN(c2nc(=O)n(-c3c(C)ccnc3C(C)C)c3nc(-c4c(O)cccc4F)c(F)cc23)C(C)C1 (stereo not drawn),"viability, T/C",compound 0.0316 µM,102% (2×) and 99.4%
same,"viability, T/C",compound 0.1 µM,102% and 99.7% and 98.1%
same,"viability, T/C",compound 0.316 µM,104% and 94.3% and 95.7%
same,"viability, T/C",compound 1 µM,90% and 101% and 75.8%
same,"viability, T/C",compound 3.16 µM,97.5% and 106% and 100%
same,"viability, T/C",compound 10 µM,110% and 108% and 116%
same,IC50,curve of compound,> 10 µM
CC(C)(O)C1CCC(Nc2ccc3ncc(-c4cccc(C(F)(F)F)c4)n3n2)CC1 (stereo not drawn),"viability, T/C",compound 0.0316 µM,105% and 92.3% and 96.8%
same,"viability, T/C",compound 0.1 µM,100% and 95.3% and 106%
same,"viability, T/C",compound 0.316 µM,98.5% and 95.1% and 91.2%
same,"viability, T/C",compound 1 µM,93.8% and 90.5% and 107%
same,"viability, T/C",compound 3.16 µM,42.9% and 43.5% and 36.2%
same,"viability, T/C",compound 10 µM,75.9% and 49.8% and 33.1%
same,IC50,curve of compound,> 10 µM and 2.89 µM and 2.47 µM
CC(=O)O[C@H]1C(=O)[C@@]2(C)[C@H]([C@H](OC(=O)c3ccccc3)[C@]3(O)C[C@H](OC(=O)[C@H](O)[C@@H](NC(=O)c4ccccc4)c4ccccc4)C(C)=C1C3(C)C)[C@]1(OC(C)=O)CO[C@@H]1C[C@@H]2O,"viability, T/C",compound 0.0316 µM,5.97% and 4.08%
same,"viability, T/C",compound 0.1 µM,3.17% and 2.51%
same,"viability, T/C",compound 0.316 µM,4.33% and 3.04%
same,"viability, T/C",compound 1 µM,6.75% and 5.13%
same,"viability, T/C",compound 3.16 µM,9.64% and 6.14%
same,"viability, T/C",compound 10 µM,14.1% and 8.4%
same,IC50,curve of compound,< 0.0316 µM
